Experimental data as given in the NIST ThermoML archive (doi:10.1016/j.jct.2019.02.011).

Experiment: xn = mol fraction of the nth substance listed
Conditions: Liquid, Vibrating tube method

COC(=O)OC [dimethyl carbonate] + CO
mass density [kg/m3]
Conditions | 100 kPa | 5000 kPa | 10000 kPa | 15000 kPa | 20000 kPa | 25000 kPa | 30000 kPa | 35000 kPa | 40000 kPa
293.15 K, x1 = 0.0253 | – | – | – | 819.01 | 822.93 | 826.85 | 830.45 | 833.84 | 837.02
293.15 K, x1 = 0.0503 | – | – | – | 832.64 | 836.57 | 840.49 | 844.1 | 847.49 | 850.69
293.15 K, x1 = 0.0745 | – | – | – | 845.15 | 849.09 | 853.02 | 856.63 | 860.04 | 863.25
293.15 K, x1 = 0.101 | – | – | – | 858.22 | 862.17 | 866.1 | 869.72 | 873.13 | 876.36
293.15 K, x1 = 0.1502 | – | – | – | 880.67 | 884.64 | 888.56 | 892.2 | 895.68 | 898.94
293.15 K, x1 = 0.2059 | – | – | – | 903.9 | 907.88 | 911.86 | 915.51 | 919 | 922.29
293.15 K, x1 = 0.25 | – | – | 916.63 | 920.72 | 924.71 | 928.69 | 932.36 | 935.81 | 939.11
293.15 K, x1 = 0.3004 | – | – | 934.21 | 938.3 | 942.31 | 946.29 | 949.97 | 953.48 | 956.8
293.15 K, x1 = 0.3426 | – | – | 947.86 | 951.96 | 955.98 | 959.96 | 963.65 | 967.16 | 970.51
293.15 K, x1 = 0.3984 | – | – | 964.54 | 968.64 | 972.68 | 976.66 | 980.36 | 983.88 | 987.25
293.15 K, x1 = 0.4514 | – | – | 979.07 | 983.17 | 987.22 | 991.16 | 994.86 | 998.4 | 1001.78
293.15 K, x1 = 0.5054 | – | – | 992.67 | 996.78 | 1000.83 | 1004.77 | 1008.44 | 1011.98 | 1015.38
293.15 K, x1 = 0.5509 | – | – | 1003.27 | 1007.38 | 1011.44 | 1015.38 | 1019.05 | 1022.6 | 1026.01
293.15 K, x1 = 0.6002 | – | – | 1013.92 | 1018.04 | 1022.11 | 1026.05 | 1029.73 | 1033.28 | 1036.7
293.15 K, x1 = 0.6469 | – | – | 1023.3 | 1027.41 | 1031.49 | 1035.43 | 1039.12 | 1042.68 | 1046.11
293.15 K, x1 = 0.6993 | – | – | 1033.07 | 1037.19 | 1041.28 | 1045.22 | 1048.91 | 1052.48 | 1055.92
293.15 K, x1 = 0.7496 | – | – | 1041.86 | 1045.98 | 1050.08 | 1054.02 | 1057.72 | 1061.24 | 1064.69
293.15 K, x1 = 0.799 | – | – | 1050.01 | 1054.09 | 1058.13 | 1062.08 | 1065.78 | 1069.31 | 1072.77
293.15 K, x1 = 0.837 | – | – | 1055.93 | 1060.01 | 1064.06 | 1068.01 | 1071.71 | 1075.29 | 1078.71
293.15 K, x1 = 0.9093 | – | – | 1066.58 | 1070.66 | 1074.72 | 1078.67 | 1082.38 | 1085.91 | 1089.35
293.15 K, x1 = 0.9239 | – | – | 1068.62 | 1072.7 | 1076.76 | 1080.71 | 1084.42 | 1087.96 | 1091.39
293.15 K, x1 = 0.9575 | – | – | 1073.25 | 1077.33 | 1081.4 | 1085.34 | 1089.06 | 1092.6 | 1096.04
293.15 K, x1 = 0.9861 | – | – | 1077.09 | 1081.17 | 1085.23 | 1089.18 | 1092.9 | 1096.44 | 1099.94
293.15 K, x1 = 1 | – | – | 1078.93 | 1083.01 | 1087.08 | 1091.03 | 1094.75 | 1098.34 | 1101.84
298.15 K, x1 = 0.0253 | 801.12 | 805.88 | 810.17 | 814.5 | 818.56 | – | – | – | –
298.15 K, x1 = 0.0503 | 814.67 | 819.42 | 823.72 | 828.05 | 832.13 | – | – | – | –
298.15 K, x1 = 0.0745 | 827.15 | 831.91 | 836.21 | 840.55 | 844.63 | – | – | – | –
298.15 K, x1 = 0.101 | 840.09 | 844.85 | 849.21 | 853.54 | 857.59 | – | – | – | –
298.15 K, x1 = 0.1502 | 862.34 | 867.1 | 871.47 | 875.8 | 879.93 | – | – | – | –
298.15 K, x1 = 0.2059 | 885.36 | 890.12 | 894.5 | 898.84 | 902.99 | – | – | – | –
298.15 K, x1 = 0.25 | 902 | 906.75 | 911.19 | 915.53 | 919.64 | – | – | – | –
298.15 K, x1 = 0.3004 | 919.49 | 924.24 | 928.68 | 933.03 | 937.16 | – | – | – | –
298.15 K, x1 = 0.3426 | 933.01 | 937.77 | 942.22 | 946.56 | 950.71 | – | – | – | –
298.15 K, x1 = 0.3984 | 949.56 | 954.26 | 958.77 | 963.12 | 967.28 | – | – | – | –
298.15 K, x1 = 0.4514 | 964.01 | 968.71 | 973.22 | 977.52 | 981.7 | – | – | – | –
298.15 K, x1 = 0.5054 | 977.58 | 982.28 | 986.75 | 991.05 | 995.2 | – | – | – | –
298.15 K, x1 = 0.5509 | 988.15 | 992.8 | 997.28 | 1001.58 | – | – | – | – | –
298.15 K, x1 = 0.6002 | 998.73 | 1003.39 | 1007.87 | 1012.12 | – | – | – | – | –
298.15 K, x1 = 0.6469 | 1008.04 | 1012.69 | 1017.17 | 1021.43 | – | – | – | – | –
298.15 K, x1 = 0.6993 | 1017.79 | 1022.44 | 1026.93 | 1031.19 | – | – | – | – | –
298.15 K, x1 = 0.7496 | 1026.56 | 1031.16 | 1035.66 | 1039.91 | – | – | – | – | –
298.15 K, x1 = 0.799 | 1034.65 | 1039.25 | 1043.74 | 1047.95 | – | – | – | – | –
298.15 K, x1 = 0.837 | 1040.55 | 1045.15 | 1049.65 | 1053.86 | – | – | – | – | –
298.15 K, x1 = 0.9093 | 1051.17 | 1055.73 | 1060.23 | 1064.44 | – | – | – | – | –
298.15 K, x1 = 0.9239 | 1053.21 | 1057.76 | 1062.27 | 1066.48 | – | – | – | – | –
298.15 K, x1 = 0.9575 | 1057.78 | 1062.33 | 1066.84 | 1071.05 | – | – | – | – | –
298.15 K, x1 = 0.9861 | 1061.61 | 1066.16 | 1070.67 | 1074.88 | – | – | – | – | –
298.15 K, x1 = 1 | 1063.45 | 1068 | 1072.51 | 1076.72 | – | – | – | – | –
